From paper PMC3602143 (Bioorganic & medicinal chemistry letters, 2013)

Experiments:
malaria parasites = conditions: ref [16]; cited from earlier work
EcDXR = conditions: read-out: Km of EcDXR; substrate DXP; ref [13]; cited from earlier work
PfDXR = conditions: read-out: Km of PfDXR; substrate DXP; ref [15]; cited from earlier work
[1] = test system: Mycobacterium tuberculosis DXR; conditions: read-out: Km of Mycobacterium tuberculosis DXR; substrate DXP; ref [23]; cited from earlier work
T. gondii = T. gondii growth / proliferation; format: cell-based, Toxoplasma gondii; conditions: previous method of ref [22]
[2] = test system: bacteria including E. coli; conditions: ref [11]; cited from earlier work
[3] = target: T1, recombinant T. gondii DXR (TgDXR) (Toxoplasma gondii, UniProt S8ESX0); assay: TgDXR enzyme inhibition assay; format: biochemical; conditions: average of acetyl analogs 8 and 9 vs 6 and 7
T1 sequence (S8ESX0 187-632): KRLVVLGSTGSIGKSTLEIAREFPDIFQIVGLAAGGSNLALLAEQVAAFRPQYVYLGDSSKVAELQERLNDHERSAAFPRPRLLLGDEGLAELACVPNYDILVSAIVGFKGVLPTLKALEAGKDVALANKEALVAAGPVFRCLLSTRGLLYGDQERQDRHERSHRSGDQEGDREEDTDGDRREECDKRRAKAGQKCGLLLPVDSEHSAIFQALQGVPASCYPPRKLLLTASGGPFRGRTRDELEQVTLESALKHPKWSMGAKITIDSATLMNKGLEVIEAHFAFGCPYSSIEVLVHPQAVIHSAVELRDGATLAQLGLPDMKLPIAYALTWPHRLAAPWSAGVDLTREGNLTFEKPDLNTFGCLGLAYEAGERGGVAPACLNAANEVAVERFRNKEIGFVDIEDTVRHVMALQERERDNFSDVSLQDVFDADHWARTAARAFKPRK

[4] = test system: strain of T. gondii engineered to express the bacterial GlpT; conditions: ref [22]; cited from earlier work
[5] = background statement; cited from earlier work
[6] = substrate: CC(=O)[C@@H](O)[C@H](O)COP(=O)(O)O; assay: TgDXR enzyme inhibition assay; format: biochemical, Toxoplasma gondii; conditions: other: DXP 10 to 450 μM, [Mg2+] = 4 mM, Michaelis-Menten fit; 30.0 °C

## CC(=O)N(O)CCC(c1ccc(Cl)c(Cl)c1)P(=O)(O)O (stereo not drawn) [Compound 11]
Malaria parasites
  antimalarial activities: potent

## CC(=O)[C@@H](O)[C@H](O)COP(=O)(O)O [DXP, 1-deoxy-D-xylulose-5-phosphate]
EcDXR
  Km: 99 µM
PfDXR
  Km: 106 µM
[1]
  Km: 47 µM

## O=c1ccc(-c2ccccc2)cn1O [Compound 5]
T. gondii
  block of proliferation / activity against growth of T. gondii: does not block proliferation
[2]
  antibacterial activity: broad antibacterial activity

## CC(=O)N(O)CCC(c1ccncc1)P(=O)(O)O (stereo not drawn) [Compound 9]
[3]
  fold less activity against TgDXR than formyl analogs 6 and 7: ~ 11 fold

## O=CN(O)CCCP(=O)(O)O [Compound 1, Fosmidomycin]
[4]
  killing of GlpT-expressing T. gondii: can effectively kill
[5]
  half-life in plasma: very short

## CC(=O)N(O)CCC(c1cccnc1)P(=O)(O)O (stereo not drawn) [Compound 8]
[3]
  fold less activity against TgDXR than formyl analogs 6 and 7: ~ 11 fold

## O=CN(O)CCC(c1ccc(Cl)c(Cl)c1)P(=O)(O)O (stereo not drawn) [Compound 10]
Malaria parasites
  antimalarial activities: potent

B1: recombinant T. gondii DXR (TgDXR) (Toxoplasma gondii ME49) (protein)
chain: KRLVVLGSTGSIGKSTLEIAREFPDIFQIVGLAAGGSNLALLAEQVAAFRPQYVYLGDSSKVAELQERLNDHERSAAFPRPRLLLGDEGLAELACVPNYDILVSAIVGFKGVLPTLKALEAGKDVALANKEALVAAGPVFRCLLSTRGLLYGDQERQDRHERSHRSGDQEGDREEDTDGDRREECDKRRAKAGQKCGLLLPVDSEHSAIFQALQGVPASCYPPRKLLLTASGGPFRGRTRDELEQVTLESALKHPKWSMGAKITIDSATLMNKGLEVIEAHFAFGCPYSSIEVLVHPQAVIHSAVELRDGATLAQLGLPDMKLPIAYALTWPHRLAAPWSAGVDLTREGNLTFEKPDLNTFGCLGLAYEAGERGGVAPACLNAANEVAVERFRNKEIGFVDIEDTVRHVMALQERERDNFSDVSLQDVFDADHWARTAARAFKPRK
[6]
  Km: 25.5 ± 3.7 µM
